Laboratory results reported in patent US20240261272A1, “LPA1 ANTAGONISTS FOR TREATING INTERSTITIAL LUNG DISEASE” (Bristol-Myers Squibb Company, priority 2022, published 2024).

How the values were obtained:
[1] = tested on: participants with IPF; experiment: Phase 2 study, IPF cohort: efficacy (rate of change in ppFVC, FVC); type: in vivo, human; settings: for relative treatment benefit compared to PBO (ppFVC) / relative reduction in rate of decline in ppFVC compared to PBO: 60 mg; for relative reduction in rate of decline in ppFVC compared to PBO: overall
Method: A total of 278 participants with IPF were randomized and 276 participants were treated as of the final analyses data cut-off (4 Aug. 2022). Male and female participants ≥40 years of age with IPF and percent predicted forced vital capacity (ppFVC)≥40% and percent predicted DLCO (ppDLCO)≥25%; diagnosed within 7 years of screening; having a centrally-read chest HRCT obtained at screening that was consistent with UIP or probable UIP, or having a lung biopsy consistent with UIP, were eligible to enter the study. The mean baseline ppFVC for all subjects was 76.5%. In the primary IPF cohort, participants were randomized (1:1:1) to receive 30 mg or 60 mg Compound A or placebo (PBO) twice daily for 26 weeks. Participants were stratified by standard of care (SoC) IPF therapy (pirfenidone versus nintedanib versus none) and region (Japan versus Rest of World) at randomization.
The primary objective of the study was to determine the rate of change in ppFVC from baseline to Week 26. The primary objective was evaluated with a two estimand framework to handle the intercurrent event of dose reduction to 10 mg BID or matching PBO when pre-specified low BP criteria is met. The primary estimand is adopted to estimate treatment effect when dose reduction is implemented. The supplementary estimand is adopted to estimate the effect of treatment without dose reduction.
Analysis Strategy: The primary estimand was to evaluate the efficacy of Compound A at 30 mg or 60 mg twice daily, compared to PBO in IPF participants who met the enrollment criteria, with or without use of SoC. The rate of decline in ppFVC (%) from baseline to Week 26 was compared using the difference between each dose and PBO as a population level summary regardless of dose reduction or treatment discontinuation for any reason (treatment policy strategy).
Analysis Strategy: The supplementary estimand for the primary objective is to evaluate the efficacy of Compound A at 30 mg or 60 mg twice daily without dose reduction, compared to the PBO in IPF subjects who met the enrollment criteria, with or without use of SoC. The rate of decline in ppFVC (%) from baseline to Week 26 has been compared using the difference between each dose and PBO as a population level summary regardless of treatment discontinuation for any reason (treatment policy strategy). In the event of dose reduction, data collected after dose reduction will not be considered relevant to the treatment effect of interest and therefore, will be treated as missing (while-on-treatment strategy).

[2] = Phase 2 study, PPF cohort: safety, adverse events, prespecified blood pressure reduction criteria, dose reductions; type: in vivo, human; settings: for Asymptomatic blood pressure reduction, patients (%) / Asymptomatic blood pressure reduction, patients, no. / Symptomatic blood pressure reduction, patients (%) / Symptomatic blood pressure reduction, patients, no.: prespecified criteria
Method: A total of 123 participants with PPF were randomized. Participants (age ≥21 years) were randomized (1:1:1) to receive 30 mg or 60 mg Compound A or PBO twice daily for 26 weeks. […] Immunosuppressive medications (mycophenolate mofetil, mycophenolic acid, azathioprine and/or tacrolimus) were permitted only if dosing is stable for ≥6 months prior to screening. If receiving antifibrotic agents pirfenidone or nintedanib, patients had to receive a stable dosage for ≥3 months prior to screening and during the screening period; if not receiving pirfenidone or nintedanib, patients had to be naive to both drugs or not have received either 4 weeks prior to Day 1. A total of 47 (38.2%) subjects were receiving antifibrotic treatment (with or without immunosuppression therapy). Of those subjects, 34 were being treated with nintedanib and 13 with pirfenidone. Participants were stratified by usual interstitial pneumonia (UIP) pattern (presence versus absence) and background therapy (antifibrotics +/−ILD-targeted immunosuppression versus ILD-targeted immunosuppression alone versus none).UIP pattern was present in 52% of subjects and unclassifiable ILD was he most common disease categorization.
Patient is experiencing any of the following, confirmed by retest within 15 minutes: • Seated systolic blood pressure <85 mmHg • Seated diastolic blood pressure <55 mmHg • Orthostatic hypotension
Patient is experiencing symptoms that, in the investigator's opinion, could be associated with a reduction in blood pressure and is also experiencing at least one of the following, confirmed by retest within 15 minutes: • Seated systolic blood pressure <100 mmHg or seated diastolic blood pressure <60 mmHg • Decrease of seated systolic blood pressure of ≥20 mmHg from the previous visit or decrease of seated diastolic blood pressure of ≥10 mmHg from the previous visit • Orthostatic hypotension • Orthostatic tachycardia

CCCN(C)C(=O)OCc1c(-c2ccc(O[C@H]3CCC[C@H](C(=O)O)C3)c(C)n2)nnn1C [Compound A, (1S,3S)-3-((2-methyl-6-(1-methyl-5-(((methyl(propyl)carbamoyl)-oxy)methyl)-1H-1,2,3-triazol-4-yl)pyridin-3-yl)oxy)cyclohexane-1-carboxylic acid]
efficacy compared to PBO (in words) ([1]; 30 mg dose group, Week 26): did not demonstrate efficacy | treatment response versus PBO (in words) ([1]; 60 mg dose group, Week 26, ppFVC and FVC (mL)): favorable treatment responses | relative treatment benefit compared to PBO (ppFVC) ([1]; not on background SoC, primary estimand): 113% | relative treatment benefit compared to PBO (ppFVC) ([1]; not on background SoC, supplementary estimand): 123% | relative treatment benefit compared to PBO (ppFVC) ([1]; on background SoC, primary estimand): 39% | relative treatment benefit compared to PBO (ppFVC) ([1]; on background SoC, supplementary estimand): 44% | relative reduction in rate of decline in ppFVC compared to PBO ([1]; primary estimand): 54% | relative reduction in rate of decline in ppFVC compared to PBO ([1]; supplementary estimand): 62% | day-1 blood pressure reduction (in words) [2]: dose dependent day-1 blood pressure reduction | hepatobiliary toxicity (in words) [2]: No hepatobiliary toxicity | tolerability and safety findings (in words) [2]: well-tolerated, demonstrated no unexpected safety findings | Dose dependent low BP thresholds ("events") ([2]; 30 mg): 30% | ≥1 TEAE related to study drug, no. ([2]; 30 mg (n = 40)): 7 | ≥1 TEAE, no. ([2]; 30 mg (n = 40)): 33 | ≥1 TESAE, no. ([2]; 30 mg (n = 40)): 4 | ≥1 TEAE related to study drug, no. ([2]; 60 mg (n = 42)): 11 | ≥1 TEAE, no. ([2]; 60 mg (n = 42)): 28 | ≥1 TESAE, no. ([2]; 60 mg (n = 42)): 5 | Orthostatic hypotension (asymptomatic and symptomatic), comparison of groups (in words) ([2]; 60 mg group): higher in the 60 mg group than for other groups | Dose reductions, patients (%) ([2]; 30-mg Compound A (n = 40)): (15.0) % | Dose reductions, patients, no. ([2]; 30-mg Compound A (n = 40)): 6 | Orthostatic hypotension (under asymptomatic blood pressure reduction), patients (%) ([2]; 30-mg Compound A (n = 40)): (15.0) % | Orthostatic hypotension (under asymptomatic blood pressure reduction), patients, no. ([2]; 30-mg Compound A (n = 40)): 6 | Orthostatic hypotension (under symptomatic blood pressure reduction), patients (%) ([2]; 30-mg Compound A (n = 40)): (2.5) % | Orthostatic hypotension (under symptomatic blood pressure reduction), patients, no. ([2]; 30-mg Compound A (n = 40)): 1 | Asymptomatic blood pressure reduction, patients (%) ([2]; 30-mg Compound A (n = 40)): (22.5) % | Asymptomatic blood pressure reduction, patients, no. ([2]; 30-mg Compound A (n = 40)): 9 | Symptomatic blood pressure reduction, patients (%) ([2]; 30-mg Compound A (n = 40)): (5.0) % | Symptomatic blood pressure reduction, patients, no. ([2]; 30-mg Compound A (n = 40)): 2 | Dose reductions, patients (%) ([2]; 60-mg Compound A (n = 42)): (11.9) % | Dose reductions, patients, no. ([2]; 60-mg Compound A (n = 42)): 5 | Orthostatic hypotension (under asymptomatic blood pressure reduction), patients (%) ([2]; 60-mg Compound A (n = 42)): (26.2) % | Orthostatic hypotension (under asymptomatic blood pressure reduction), patients, no. ([2]; 60-mg Compound A (n = 42)): 11 | Orthostatic hypotension (under symptomatic blood pressure reduction), patients (%) ([2]; 60-mg Compound A (n = 42)): (9.5) % | Orthostatic hypotension (under symptomatic blood pressure reduction), patients, no. ([2]; 60-mg Compound A (n = 42)): 4 | Asymptomatic blood pressure reduction, patients (%) ([2]; 60-mg Compound A (n = 42)): (31.0) % | Asymptomatic blood pressure reduction, patients, no. ([2]; 60-mg Compound A (n = 42)): 13 | Symptomatic blood pressure reduction, patients (%) ([2]; 60-mg Compound A (n = 42)): (14.3) % | Symptomatic blood pressure reduction, patients, no. ([2]; 60-mg Compound A (n = 42)): 6 | marked laboratory abnormalities (in words) ([2]; among treatment groups): No notable imbalances in marked laboratory abnormalities among treatment groups
